Results reported in publication PMC10817512, “OSMAC-Based Discovery and Biosynthetic Gene Clusters Analysis of Secondary Metabolites from Marine-Derived Streptomyces globisporus SCSIO LCY30” (Marine Drugs, 2023).
In brackets after ≈: the same amount, converted by molar mass. Where two headings read alike, the source gives them in different places.

Key:
[1] = tested on: Staphylococcus simulans AKA1; assay: Antibacterial MIC, CLSI microdilution; format: cell-based
Bacillus subtilis BS01 = assay: Antibacterial MIC, CLSI microdilution; format: cell-based
Description: (§1) An antibacterial activity test of compounds 1–3 was conducted according to a standard protocol provided by the Clinical and Laboratory Standards Institute (CLSI). Sixteen bacterial strains were used, including Staphylococcus aureus ATCC 29213, Staphylococcus aureus 16339, Staphylococcus aureus 1862, Staphylococcus aureus 3090, Staphylococcus aureus 991, Staphylococcus aureus 669, Staphylococcus aureus 745324, Staphylococcus aureus 16162, Staphylococcus aureus (cfr) GDE4P037P, Enterococcus faecalis ATCC 29212, Enterococcus faecalis 36950, Micrococcus luteus ML01, MRSA, Bacillus subtilis BS01, Enterococcus gallinarum 5F52C, and Enterococcus faecium 36711. Compounds 1–3 were dissolved in DMSO at a concentration of 3.2 mg/mL, and vancomycin and ampicilin were used as antibacterial control agents. […] All the assays were carried out in triplicate.

[2] = tested on: Enterococcus faecalis 36950; assay: Antibacterial MIC, CLSI microdilution; format: cell-based
Description: as §1

[3] = tested on: Enterococcus faecalis ATCC 29212; assay: Antibacterial MIC, CLSI microdilution; format: cell-based
Description: as §1

[4] = tested on: Enterococcus faecium 36711; assay: Antibacterial MIC, CLSI microdilution; format: cell-based
Description: as §1

[5] = tested on: Enterococcus gallinarum 5F52C; assay: Antibacterial MIC, CLSI microdilution; format: cell-based
Description: as §1

Micrococcus luteus ML01 = assay: Antibacterial MIC, CLSI microdilution; format: cell-based
Description: as §1

[6] = tested on: Staphylococcus aureus (cfr) GDE4P037P; assay: Antibacterial MIC, CLSI microdilution; format: cell-based
Description: as §1

[7] = tested on: Staphylococcus aureus 16162; assay: Antibacterial MIC, CLSI microdilution; format: cell-based
Description: as §1

[8] = tested on: Staphylococcus aureus 16339; assay: Antibacterial MIC, CLSI microdilution; format: cell-based
Description: as §1

[9] = tested on: Staphylococcus aureus 1862; assay: Antibacterial MIC, CLSI microdilution; format: cell-based
Description: as §1

[10] = tested on: Staphylococcus aureus 3090; assay: Antibacterial MIC, CLSI microdilution; format: cell-based
Description: as §1

[11] = tested on: Staphylococcus aureus 669; assay: Antibacterial MIC, CLSI microdilution; format: cell-based
Description: as §1

[12] = tested on: Staphylococcus aureus 745324; assay: Antibacterial MIC, CLSI microdilution; format: cell-based
Description: as §1

[13] = tested on: Staphylococcus aureus 991; assay: Antibacterial MIC, CLSI microdilution; format: cell-based
Description: as §1

[14] = tested on: Staphylococcus aureus ATCC 29213; assay: Antibacterial MIC, CLSI microdilution; format: cell-based
Description: as §1

MRSA = assay: Antibacterial MIC, CLSI microdilution; format: cell-based, Staphylococcus aureus
Description: as §1

[15] = tested on: cervical cancer cell line Hela; assay: Cell growth inhibitory (cytotoxic) activity assay; format: cell-based, human
From the text: (§2) The cell growth inhibitory activities of compounds 1–3 against fourteen different human cell lines (human liver cell line LX-2; hepatocellular cancer line HEPG2; human intestinal epithelial cell line NCM460; colorectal cancer cell lines HCT116 and SW480; normal human breast cell line MCF-10A; breast cancer cell line MCF7; triple-negative breast cancer cell lines MDA-MB-231, MDA-MB-468, and Bt-549; human umbilical vein endothelial cell line; lung cancer cell line A549; cervical cancer cell line Hela; and cholangiocarcinoma cell line RBE) were tested according to the previously published methods. SPSS software version 22.0 was used to test the IC50 values. Cisplatin and adriamycin were used as positive control agents, and all the experiments were carried out in triplicate.

[16] = tested on: cholangiocarcinoma cell line RBE; assay: Cell growth inhibitory (cytotoxic) activity assay; format: cell-based, human
From the text: as §2

[17] = tested on: colorectal cancer cell line HCT116; assay: Cell growth inhibitory (cytotoxic) activity assay; format: cell-based, human
From the text: as §2

[18] = tested on: colorectal cancer cell line SW480; assay: Cell growth inhibitory (cytotoxic) activity assay; format: cell-based, human; conditions: SW480 (colorectal cancer)
From the text: as §2

[19] = tested on: hepatocellular cancer line HEPG2; assay: Cell growth inhibitory (cytotoxic) activity assay; format: cell-based, human
From the text: as §2

[20] = tested on: lung cancer cell line A549; assay: Cell growth inhibitory (cytotoxic) activity assay; format: cell-based, human
From the text: as §2

[21] = tested on: triple-negative breast cancer cell line Bt-549; assay: Cell growth inhibitory (cytotoxic) activity assay; format: cell-based, human
From the text: as §2

[22] = tested on: triple-negative breast cancer cell line MDA-MB-231; assay: Cell growth inhibitory (cytotoxic) activity assay; format: cell-based, human
From the text: as §2

[23] = tested on: triple-negative breast cancer cell line MDA-MB-468; assay: Cell growth inhibitory (cytotoxic) activity assay; format: cell-based, human
From the text: as §2

[24] = tested on: breast cancer cell line MCF7; assay: Cell growth inhibitory (cytotoxic) activity assay; format: cell-based, human
From the text: SPSS software version 22.0 was used to test the IC50 values.

[25] = tested on: human intestinal epithelial cell line NCM460; assay: Cell growth inhibitory (cytotoxic) activity assay; format: cell-based; conditions: NCM460 (normal intestinal epithelial cell line)
From the text: as §2

[26] = tested on: human liver cell line LX-2; assay: Cell growth inhibitory (cytotoxic) activity assay; format: cell-based; conditions: LX-2 (human liver cell line)
From the text: as §2

[27] = tested on: human umbilical vein endothelial cell line HUVEC; assay: Cell growth inhibitory (cytotoxic) activity assay; format: cell-based
From the text: as §2

[28] = tested on: normal human breast cell line MCF-10A; assay: Cell growth inhibitory (cytotoxic) activity assay; format: cell-based; conditions: MCF-10A (normal human breast cell line)
From the text: as §2

Molecule: mayamycin A [Mayamycin (1)]
- MIC ([1]; Staphylococcus simulans AKA1, 37 °C, 16–18 h): 32 µg/mL
- MIC (Bacillus subtilis BS01; Bacillus subtilis BS01, 37 °C, 16–18 h): 8 µg/mL
- MIC ([2]; Enterococcus faecalis 36950, 37 °C, 16–18 h): 8 µg/mL
- MIC ([3]; Enterococcus faecalis ATCC 29212, 37 °C, 16–18 h): 32 µg/mL
- MIC ([4]; Enterococcus faecium 36711, 37 °C, 16–18 h): 16 µg/mL
- MIC ([5]; Enterococcus gallinarum 5F52C, 37 °C, 16–18 h): 32 µg/mL
- MIC (Micrococcus luteus ML01; Micrococcus luteus ML01, 37 °C, 16–18 h): 1 µg/mL
- MIC ([6]; Staphylococcus aureus (cfr) GDE4P037P, 37 °C, 16–18 h): 8 µg/mL
- MIC ([7]; Staphylococcus aureus 16162, 37 °C, 16–18 h): 16 µg/mL
- MIC ([8]; Staphylococcus aureus 16339, 37 °C, 16–18 h): 16 µg/mL
- MIC ([9]; Staphylococcus aureus 1862, 37 °C, 16–18 h): 16 µg/mL
- MIC ([10]; Staphylococcus aureus 3090, 37 °C, 16–18 h): 16 µg/mL
- MIC ([11]; Staphylococcus aureus 669, 37 °C, 16–18 h): 16 µg/mL
- MIC ([12]; Staphylococcus aureus 745324, 37 °C, 16–18 h): 16 µg/mL
- MIC ([13]; Staphylococcus aureus 991, 37 °C, 16–18 h): 16 µg/mL
- MIC ([14]; Staphylococcus aureus ATCC 29213, 37 °C, 16–18 h): 16 µg/mL
- MIC (MRSA; 37 °C, 16–18 h): 8 µg/mL
- IC50 [15]: 910 nM
- IC50 [16]: 1050 nM
- IC50 [17]: 1080 nM
- IC50 [18]: 1050 nM
- IC50 [19]: 2120 nM
- IC50 [20]: 1650 nM
- IC50 ([21]; Bt-549 (TNBC)): 1880 nM
- selective index ([21]; Bt-549 versus normal breast cells): 3.18
- IC50 ([22]; MDA-MB-231 (TNBC)): 600 nM
- selective index ([22]; MDA-MB-231 versus normal breast cells): 9.97
- IC50 ([23]; MDA-MB-468 (TNBC)): 2220 nM
- selective index ([23]; MDA-MB-468 versus normal breast cells): 2.69
- IC50 [24]: 2100 nM
- IC50 [25]: 2640 nM
- IC50 [26]: 2310 nM
- IC50 [27]: 1680 nM
- IC50 [28]: 5980 nM

Molecule: CN[C@H](CC(C)C)C(=O)N[C@H]1C(=O)N[C@@H](CC(N)=O)C(=O)N[C@H]2C(=O)N[C@H]3C(=O)N[C@H](C(=O)N[C@H](C(=O)O)c4cc(O)cc(O)c4-c4cc3ccc4O)[C@H](O)c3ccc(c(Cl)c3)Oc3cc2cc(c3O[C@@H]2O[C@H](CO)[C@@H](O)[C@H](O)[C@H]2O[C@H]2C[C@](C)(N)[C@H](O)[C@H](C)O2)Oc2ccc(cc2Cl)[C@H]1O [Vancomycin, reference compound]
- MIC ([1]; Staphylococcus simulans, AKA1): 0.5 µg/mL (≈ 0.345 µM)
- MIC (Bacillus subtilis BS01; Bacillus subtilis, BS01): 0.13 µg/mL (≈ 0.0897 µM)
- MIC ([2]; Enterococcus faecalis, 36950): 0.5 µg/mL (≈ 0.345 µM)
- MIC ([3]; Enterococcus faecalis, ATCC29212): 2 µg/mL (≈ 1.38 µM)
- MIC ([4]; Enterococcus faecium, 36711): > 64 µg/mL
- MIC ([5]; Enterococcus gallinarum, GALLINARUM): 4 µg/mL (≈ 2.76 µM)
- MIC (Micrococcus luteus ML01; Micrococcus luteus, ML01): 0.13 µg/mL (≈ 0.0897 µM)
- MIC ([6]; Staphylococcus aureus): 1 µg/mL (≈ 0.69 µM)
- MIC ([7]; Staphylococcus aureus, 16162): 0.5 µg/mL (≈ 0.345 µM)
- MIC ([8]; Staphylococcus aureus, 16339): 1 µg/mL (≈ 0.69 µM)
- MIC ([9]; Staphylococcus aureus, 1862): 1 µg/mL (≈ 0.69 µM)
- MIC ([10]; Staphylococcus aureus, 3090): 0.5 µg/mL (≈ 0.345 µM)
- MIC ([11]; Staphylococcus aureus, 669): 1 µg/mL (≈ 0.69 µM)
- MIC ([12]; Staphylococcus aureus, 745324): 1 µg/mL (≈ 0.69 µM)
- MIC ([13]; Staphylococcus aureus, 991): 0.5 µg/mL (≈ 0.345 µM)
- MIC ([14]; Staphylococcus aureus, ATCC29213): 1 µg/mL (≈ 0.69 µM)
- MIC (MRSA; Staphylococcus aureus): 0.5 µg/mL (≈ 0.345 µM)

Molecule: CC1(C)S[C@@H]2[C@H](NC(=O)[C@H](N)c3ccccc3)C(=O)N2[C@H]1C(=O)O [Ampicillin, reference compound]
- MIC ([1]; Staphylococcus simulans AKA1, 37 °C, 16–18 h, read-out: MIC): > 64 µg/mL
- MIC (Bacillus subtilis BS01; Bacillus subtilis BS01, 37 °C, 16–18 h, read-out: MIC): 0.13 µg/mL (≈ 0.372 µM)
- MIC ([2]; Enterococcus faecalis 36950, 37 °C, 16–18 h, read-out: MIC): > 64 µg/mL
- MIC ([3]; ATCC29212, Enterococcus faecalis ATCC 29212, 37 °C, 16–18 h, read-out: MIC): 1 µg/mL (≈ 2.86 µM)
- MIC ([4]; Enterococcus faecium 36711, 37 °C, 16–18 h, read-out: MIC): > 64 µg/mL
- MIC ([5]; Enterococcus gallinarum 5F52C, 37 °C, 16–18 h, read-out: MIC): 8 µg/mL (≈ 22.9 µM)
- MIC (Micrococcus luteus ML01; Micrococcus luteus, ML01, Micrococcus luteus ML01, 37 °C, 16–18 h, read-out: MIC): 0.13 µg/mL (≈ 0.372 µM)
- MIC ([6]; Staphylococcus aureus (cfr) GDE4P037P, 37 °C, 16–18 h, read-out: MIC): 16 µg/mL (≈ 45.8 µM)
- MIC ([7]; Staphylococcus aureus 16162, 37 °C, 16–18 h, read-out: MIC): 16 µg/mL (≈ 45.8 µM)
- MIC ([8]; Staphylococcus aureus 16339, 37 °C, 16–18 h, read-out: MIC): 64 µg/mL (≈ 183 µM)
- MIC ([9]; Staphylococcus aureus 1862, 37 °C, 16–18 h, read-out: MIC): 4 µg/mL (≈ 11.4 µM)
- MIC ([10]; Staphylococcus aureus 3090, 37 °C, 16–18 h, read-out: MIC): 16 µg/mL (≈ 45.8 µM)
- MIC ([11]; Staphylococcus aureus 669, 37 °C, 16–18 h, read-out: MIC): 8 µg/mL (≈ 22.9 µM)
- MIC ([12]; Staphylococcus aureus 745324, 37 °C, 16–18 h, read-out: MIC): 4 µg/mL (≈ 11.4 µM)
- MIC ([13]; Staphylococcus aureus 991, 37 °C, 16–18 h, read-out: MIC): 4 µg/mL (≈ 11.4 µM)
- MIC ([14]; ATCC29213, Staphylococcus aureus ATCC 29213, 37 °C, 16–18 h, read-out: MIC): 1 µg/mL (≈ 2.86 µM)
- MIC (MRSA; Staphylococcus aureus, 37 °C, 16–18 h, read-out: MIC): 32 µg/mL (≈ 91.6 µM)
